Here are results for three compounds from patent publication EP0583566A2, “Process for the preparation of glycine-conjugated bile acids and relative pharmaceutical compositions useful for treating hepatic insufficiency” (ERREGIERRE INDUSTRIA CHIMICA Spa, priority 1992, dated 1994).

Read-outs that look alike come from different tables or passages of the source.

One may read the logP as the decadic logarithm of the partition coefficient of the neutral form, usually between octanol and water. A word on the pKa: it is the pH at which an ionisable group is half protonated.

A short description of series [1]: uptake by the liver. The class given is in vivo. The source says:
GUDCA is well absorbed by the intestine through a double mechanism, i.e. active and passive, transported to the liver by the portal system and uptaken. It passes rapidly through the liver without being metabolized and is then secreted in the bile with high transport rate and efficiency. UDCA is absorbed only through a passive mechanism and is uptaken by liver at 50% (GUDCA at 80%).

Series [2] has as its system hepatotoxic effects of TUDCA. The series is described as follows: hepatoprotective activity against bile acid hepatotoxicity on co-administration. Particulars: 0.8 µmol/min/100g. In kind it is in vivo. The source says: Normal values of alkaline phosphatase (ALP) and biliary lactate dehydrogenase (LDH) as well as of bile flow and calcium secretion are thereby obtained.

The conditions of series [3]: in vivo. An excerpt: GUDCA is well absorbed by the intestine through a double mechanism, i.e. active and passive, transported to the liver by the portal system and uptaken. It passes rapidly through the liver without being metabolized and is then secreted in the bile with high transport rate and efficiency.
A short description of series [4]: physchem.
The nature of series [5]: critical micellar concentration (detergent capacity). In kind it is physicochemical.
The nature of series [6]: pKa.

Consider `C[C@H](CCC(=O)NCC(=O)O)[C@H]1CC[C@H]2[C@@H]3[C@@H](O)C[C@@H]4C[C@H](O)CC[C@]4(C)[C@H]3CC[C@]12C` [GUDCA, glycoursodeoxycholic acid], for which the hepatic extraction ratio in series [1] (in vivo) stood at 0.8. For the same compound, the “prevention of hepatotoxic effects” value in series [2] (administered with TUDCA at the same dose) is “can prevent the hepatotoxic effects”. In series [2] (for GUDCA also bile flow and calcium secretion normal), the “alkaline phosphatase (ALP) and biliary lactate dehydrogenase (LDH)” value was “Normal values”. Also, the Fa in series [3] was 100%. The compound further gave a logP in series [4] of 2. In addition, in series [5], the critical micellar concentration stood at 12 µM.
Consider `C[C@H](CCC(=O)NCCS(=O)(=O)O)[C@H]1CC[C@H]2[C@@H]3[C@@H](O)C[C@@H]4C[C@H](O)CC[C@]4(C)[C@H]3CC[C@]12C` [TUDCA, tauroursodeoxycholic acid], for which the pKa in series [6] was around 1.
On to `C[C@H](CCC(=O)O)[C@H]1CC[C@H]2[C@@H]3[C@@H](O)C[C@@H]4C[C@H](O)CC[C@]4(C)[C@H]3CC[C@]12C` [UDCA, ursodeoxycholic acid], for which the hepatic extraction ratio in series [1] (liver, read-out: uptaken by liver) came out at 0.5. Moreover, in series [3], the Fa stood at 50% and the “pH values of the intestine contents at which absorbed” value was found to be 8.5.
